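Protocol summary: plate cells (96-well), add compound at 5 concentrations, incubate 48 h, interpolate endpoints linearly. Abbreviation: GI50, concentration required for 50% inhibition of growth.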 Calls of active or inactive are those of the source. No stated cut-off is given here; in the data, active = GI50 up to about 1.1 µM and inactive = higher.
Legend:
Experiment in all cases: growth of human tumour cells (NCI), 48 h
[1] = test system: RPMI-8226
[2] = test system: T47D
[3] = test system: SK-MEL-2
[4] = test system: HCC 2998
[5] = test system: Malme-3M
[6] = test system: RXF 393
[7] = test system: Hs-578T
[8] = test system: UACC-257
[9] = test system: MOLT-4
[10] = test system: A498
[11] = test system: MCF7
[12] = test system: HL-60
[13] = test system: SK-MEL-5
[14] = test system: MDA-MB-435
[15] = test system: U-251
[16] = test system: EKVX
[17] = test system: TK-10
[18] = test system: CCRF-CEM
[19] = test system: HCT-15
[20] = test system: SW-620
[21] = test system: SNB-19
[22] = test system: A549
[23] = test system: OVCAR-8
[24] = test system: OVCAR-3
[25] = test system: 786-0
[26] = test system: COLO 205
[27] = test system: SK-OV-3
[28] = test system: DU-145
[29] = test system: NCI-H460
[30] = test system: HOP-92
[31] = test system: CAKI-1
[32] = test system: BT-549
[33] = test system: NCI-H522
[34] = test system: OVCAR-5
[35] = test system: NCI-H226
[36] = test system: MDA-N
[37] = test system: SF-295
[38] = test system: HT-29
[39] = test system: SK-MEL-28
[40] = test system: IGROV-1
[41] = test system: NCI-H23
[42] = test system: MDA-MB-231
[43] = test system: LOX IMVI
[44] = test system: K562
[45] = test system: HCT-116
[46] = test system: SN12C
[47] = test system: HOP-62
[48] = test system: SF-539
[49] = test system: UACC-62
[50] = test system: SF-268
[51] = test system: OVCAR-4
[52] = test system: UO-31
[53] = test system: SR
[54] = test system: PC-3
[55] = test system: ACHN
[56] = test system: KM12
[57] = test system: M14
[58] = test system: NCI/ADR-RES
[59] = test system: SNB-75

With `CC(C)(C)OCC1NC(=O)[C@@H]2Cc3c([nH]c4ccccc34)C(c3ccccc3)N2C1=O` (stereo partly specified) the GI50 [1] was > 21.6 µM (inactive), the GI50 [2] was > 50 µM (inactive) and the GI50 [3] was > 50 µM (inactive). The GI50 [4] was > 50 µM (inactive), the GI50 [5] was > 50 µM (inactive) and the GI50 [6] was > 50 µM (inactive). For the same molecule, the GI50 [7] was > 50 µM (inactive), the GI50 [8] was > 50 µM (inactive) and the GI50 [9] was 16.2 µM (inactive). For the same molecule, the GI50 [10] was > 50 µM (inactive), the GI50 [11] was > 50 µM (inactive) and the GI50 [12] was > 26.2 µM (inactive). The GI50 [13] was > 50 µM (inactive), the GI50 [14] was > 50 µM (inactive) and the GI50 [15] was > 50 µM (inactive). For the same molecule, the GI50 [16] was > 50 µM (inactive), the GI50 [17] was > 50 µM (inactive) and the GI50 [18] was > 50 µM (inactive). The GI50 [19] was greater than 50 µM, the GI50 [20] was > 50 µM (inactive) and the GI50 [21] was > 50 µM (inactive). For the same molecule, the GI50 [22] was > 50 µM (inactive), the GI50 [23] was > 50 µM (inactive) and the GI50 [24] was > 50 µM (inactive). For the same molecule, the GI50 [25] was > 50 µM (inactive), the GI50 [26] was > 50 µM (inactive) and the GI50 [27] was > 50 µM (inactive). The GI50 [28] was > 50 µM (inactive), the GI50 [29] was > 50 µM (inactive) and the GI50 [30] was > 50 µM (inactive). The GI50 [31] was > 50 µM (inactive), the GI50 [32] was > 50 µM (inactive) and the GI50 [33] was > 50 µM (inactive). For the same molecule, the GI50 [34] was > 50 µM (inactive), the GI50 [35] was > 27.4 µM (inactive) and the GI50 [36] was > 50 µM (inactive). For the same molecule, the GI50 [37] was > 50 µM (inactive), the GI50 [38] was > 50 µM (inactive) and the GI50 [39] was > 50 µM (inactive). For the same molecule, the GI50 [40] was > 50 µM (inactive), the GI50 [41] was > 50 µM (inactive) and the GI50 [42] was > 50 µM (inactive). For the same molecule, the GI50 [43] was > 50 µM (inactive), the GI50 [44] was > 30.1 µM (inactive) and the GI50 [45] was > 50 µM (inactive). The GI50 [46] was > 50 µM (inactive), the GI50 [47] was > 50 µM (inactive) and the GI50 [48] was 30.1 µM (inactive). For the same molecule, the GI50 [49] was > 50 µM (inactive), the GI50 [50] was > 50 µM (inactive) and the GI50 [51] was > 50 µM (inactive). The GI50 [52] was > 50 µM (inactive), the GI50 [53] was > 22.4 µM (inactive) and the GI50 [54] was > 50 µM (inactive). For the same molecule, the GI50 [55] was > 50 µM (inactive), the GI50 [56] was > 50 µM (inactive) and the GI50 [57] was > 50 µM (inactive). For the same molecule, the GI50 [58] was > 50 µM (inactive) and the GI50 [59] was > 50 µM (inactive).
For `COc1cc2c3c(c1OC)C1(C=CC(=O)C=C1)CC3NCC2` (stereo unspecified), the GI50 [1] was > 100 µM (inactive), the GI50 [2] was > 100 µM (inactive) and the GI50 [3] was > 100 µM (inactive). The GI50 [4] was > 100 µM (inactive), the GI50 [5] was > 100 µM (inactive) and the GI50 [6] was 89.7 µM (inactive). For the same molecule, the GI50 [7] was > 100 µM (inactive), the GI50 [8] was > 100 µM (inactive) and the GI50 [9] was > 100 µM (inactive). For the same molecule, the GI50 [10] was > 100 µM (inactive), the GI50 [11] was > 100 µM (inactive) and the GI50 [12] was 32.6 µM (inactive). The GI50 [13] was > 100 µM (inactive), the GI50 [14] was > 100 µM (inactive) and the GI50 [15] was > 100 µM (inactive). For the same molecule, the GI50 [16] was > 100 µM (inactive), the GI50 [17] was > 100 µM (inactive) and the GI50 [18] was 48.8 µM (inactive). The GI50 [19] was greater than 100 µM, the GI50 [20] was > 100 µM (inactive) and the GI50 [21] was > 100 µM (inactive). For the same molecule, the GI50 [22] was > 100 µM (inactive), the GI50 [23] was > 100 µM (inactive) and the GI50 [24] was > 100 µM (inactive). For the same molecule, the GI50 [25] was 44 µM (inactive), the GI50 [26] was > 100 µM (inactive) and the GI50 [27] was > 100 µM (inactive). For the same molecule, the GI50 [28] was > 100 µM (inactive), the GI50 [29] was > 100 µM (inactive) and the GI50 [30] was > 100 µM (inactive). The GI50 [31] was > 100 µM (inactive), the GI50 [32] was > 100 µM (inactive) and the GI50 [33] was 71 µM (inactive). The GI50 [34] was > 100 µM (inactive), the GI50 [35] was > 100 µM (inactive) and the GI50 [36] was > 100 µM (inactive). The GI50 [37] was > 100 µM (inactive), the GI50 [38] was > 100 µM (inactive) and the GI50 [39] was > 100 µM (inactive). For the same molecule, the GI50 [40] was > 100 µM (inactive), the GI50 [41] was > 100 µM (inactive) and the GI50 [42] was > 100 µM (inactive). The GI50 [43] was > 100 µM (inactive), the GI50 [44] was > 100 µM (inactive) and the GI50 [45] was > 100 µM (inactive). The GI50 [46] was > 100 µM (inactive), the GI50 [47] was > 100 µM (inactive) and the GI50 [48] was > 100 µM (inactive). For the same molecule, the GI50 [49] was > 100 µM (inactive), the GI50 [50] was > 100 µM (inactive) and the GI50 [51] was > 100 µM (inactive). For the same molecule, the GI50 [53] was > 100 µM (inactive), the GI50 [54] was > 100 µM (inactive) and the GI50 [55] was > 100 µM (inactive). For the same molecule, the GI50 [56] was 80 µM (inactive), the GI50 [57] was > 100 µM (inactive) and the GI50 [58] was > 100 µM (inactive). For the same molecule, the GI50 [59] was 80.5 µM (inactive).
With `C1=N\c2ccc(cc2)-c2ccc(cc2)/N=C\c2ccccc2OCc2cccc(n2)COc2ccccc2/1` the GI50 [1] was > 100 µM (inactive), the GI50 [2] was > 54 µM (inactive) and the GI50 [3] was 27.6 µM (inactive). For the same molecule, the GI50 [4] was > 100 µM (inactive), the GI50 [5] was > 82.8 µM (inactive) and the GI50 [6] was 15.2 µM (inactive). For the same molecule, the GI50 [7] was 13.1 µM (inactive), the GI50 [8] was > 100 µM (inactive) and the GI50 [9] was > 100 µM (inactive). For the same molecule, the GI50 [10] was 65.9 µM (inactive), the GI50 [11] was > 100 µM (inactive) and the GI50 [12] was > 100 µM (inactive). The GI50 [13] was > 31.2 µM (inactive), the GI50 [14] was > 100 µM (inactive) and the GI50 [15] was 7.59 µM (inactive). The GI50 [16] was 36.4 µM (inactive), the GI50 [17] was 26.6 µM (inactive) and the GI50 [18] was > 100 µM (inactive). The GI50 [19] was greater than 100 µM, the GI50 [20] was > 100 µM (inactive) and the GI50 [21] was 13.9 µM (inactive). The GI50 [22] was 72.8 µM (inactive), the GI50 [23] was 31.8 µM (inactive) and the GI50 [24] was > 100 µM (inactive). For the same molecule, the GI50 [25] was 9.38 µM (inactive), the GI50 [26] was > 100 µM (inactive) and the GI50 [27] was 30.1 µM (inactive). The GI50 [28] was > 80.5 µM (inactive), the GI50 [29] was 71.6 µM (inactive) and the GI50 [30] was 10.9 µM (inactive). The GI50 [31] was > 58.5 µM (inactive), the GI50 [32] was 32.7 µM (inactive) and the GI50 [33] was 23.8 µM (inactive). The GI50 [34] was > 63.5 µM (inactive), the GI50 [35] was 39.5 µM (inactive) and the GI50 [36] was > 100 µM (inactive). The GI50 [37] was 18.5 µM (inactive), the GI50 [38] was > 100 µM (inactive) and the GI50 [39] was 84.9 µM (inactive). For the same molecule, the GI50 [40] was 40.6 µM (inactive), the GI50 [41] was 15.1 µM (inactive) and the GI50 [42] was 34 µM (inactive). The GI50 [43] was > 44.2 µM (inactive), the GI50 [44] was > 100 µM (inactive) and the GI50 [45] was 24.4 µM (inactive). The GI50 [46] was > 81.3 µM (inactive), the GI50 [47] was 5.27 µM (inactive) and the GI50 [48] was 26.7 µM (inactive). The GI50 [49] was 39.4 µM (inactive), the GI50 [50] was 20.6 µM (inactive) and the GI50 [51] was > 100 µM (inactive). For the same molecule, the GI50 [52] was > 60.7 µM (inactive), the GI50 [53] was > 100 µM (inactive) and the GI50 [54] was > 100 µM (inactive). For the same molecule, the GI50 [55] was 21.3 µM (inactive), the GI50 [56] was > 100 µM (inactive) and the GI50 [57] was 36.4 µM (inactive). The GI50 [58] was > 100 µM (inactive) and the GI50 [59] was 2.83 µM (inactive).
